Calls of active or inactive are those of the source.

For orientation: AC50 means the concentration at which the activity in the assay is half-maximal.

The target in assay [1] is Disintegrin and metalloproteinase domain-containing protein 17 (Homo sapiens, UniProt P78536). Put plainly: exosite inhibitors of ADAM17, dose response, biochemical (AID 743260).
Assay [2] is described as follows: inhibition of ADAM10 peptide cleavage – biochemical, FRET peptide substrate, recombinant human ADAM10, selectivity assay for ADAM17 exosite inhibitor project, dose response (AID 743259).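 Note: ADAM10 enzyme cleaving a FRET peptide substrate.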
The target of the next assay is ORF 73 (Human herpesvirus 8, UniProt O40947). The experiment in a line: KSHV LANA DNA-binding disruption – biochemical, fluorescence polarization, cherry-picked samples, dose response (AID 504725).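 Note: fluorescence polarization of a labeled DNA duplex reporting LANA DNA binding; potency is for inhibitors that block LANA binding to the DNA.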 Further details: species or system Human gammaherpesvirus 8. On the technique in general: In fluorescence polarisation assays a small probe gives low polarisation when free and higher when bound to something large.

A further assay deals with Nonstructural protein 1 (Influenza A virus, UniProt Q194T2). The format is functional, Influenza A virus (A/California/07/2009(H1N1)).
In a further assay the target is Genome polyprotein (dengue virus type 2, UniProt P29990). The experiment in a line: flavivirus cap methylation enzyme inhibition – biochemical, confirmation dose response, primary screen (AID 588689). The class given is functional.
Chain of Genome polyprotein (P29990 2492-3391 limits assumed): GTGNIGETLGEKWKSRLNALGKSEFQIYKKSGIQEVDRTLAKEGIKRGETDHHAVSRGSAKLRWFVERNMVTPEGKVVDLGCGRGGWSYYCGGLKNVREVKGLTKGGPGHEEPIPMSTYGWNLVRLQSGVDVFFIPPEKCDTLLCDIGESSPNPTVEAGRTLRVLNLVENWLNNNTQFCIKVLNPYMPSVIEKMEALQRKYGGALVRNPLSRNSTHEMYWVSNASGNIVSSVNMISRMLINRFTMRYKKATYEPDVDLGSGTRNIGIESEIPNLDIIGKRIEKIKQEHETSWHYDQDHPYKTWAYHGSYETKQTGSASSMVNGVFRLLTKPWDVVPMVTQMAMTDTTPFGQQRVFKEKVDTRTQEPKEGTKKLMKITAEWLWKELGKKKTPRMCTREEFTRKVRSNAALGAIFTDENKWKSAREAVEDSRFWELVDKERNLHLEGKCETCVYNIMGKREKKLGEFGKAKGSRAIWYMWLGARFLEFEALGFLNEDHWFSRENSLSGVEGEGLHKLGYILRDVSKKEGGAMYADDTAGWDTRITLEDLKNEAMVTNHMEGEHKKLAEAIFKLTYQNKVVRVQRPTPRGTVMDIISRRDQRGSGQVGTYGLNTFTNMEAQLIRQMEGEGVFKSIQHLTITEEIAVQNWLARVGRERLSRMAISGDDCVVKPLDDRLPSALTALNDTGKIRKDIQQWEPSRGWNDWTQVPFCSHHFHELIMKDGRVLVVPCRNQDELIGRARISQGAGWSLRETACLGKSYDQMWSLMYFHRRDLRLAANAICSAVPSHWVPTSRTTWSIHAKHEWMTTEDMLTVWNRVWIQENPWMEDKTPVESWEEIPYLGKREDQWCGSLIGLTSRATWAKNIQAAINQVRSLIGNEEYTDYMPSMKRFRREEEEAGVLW
Assay [3] deals with T1, Small ubiquitin-related modifier 2 (Homo sapiens, UniProt P61956). Put plainly: disruption of SUMO2 interaction with SIM peptide – biochemical, fluorescence polarization, uHTS hits, selectivity assay for SUMO1 interaction inhibitor project, dose response (AID 624385). The note with it: read-out: IC50_Mean. The format is functional.
T1 sequence (P61956 whole entry): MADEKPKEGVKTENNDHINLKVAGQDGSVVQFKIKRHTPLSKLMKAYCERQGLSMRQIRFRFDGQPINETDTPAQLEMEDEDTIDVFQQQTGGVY
Assay [4] addresses T2, Small ubiquitin-related modifier 1 (Homo sapiens, UniProt P63165). Put plainly: SUMO1 protein interaction blockers, potency – biochemical, fluorescence polarization, uHTS hits, dose response (AID 624382). The format is functional. The settings on record: read-out: IC50_Mean.
Assay [5] has as its target T1, Small ubiquitin-related modifier 2. Put plainly: SUMO2 binding disruption by SUMO1 hits – biochemical, FRET, human SUMO2, uHTS hits, selectivity assay for SUMO1 interaction inhibitor project, dose response (AID 624384). The settings on record: read-out: IC50_Mean. The format is functional.
Assay [6] deals with T3, Fatty acid synthase (Homo sapiens, UniProt P49327). Put plainly: inhibition of human FAS-TE enzyme activity – biochemical, endpoint fluorescence intensity, uHTS hits, dose response (AID 624327).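 Note: fluorescence from hydrolysis of an O-methyl fluorescein acyl ester substrate by the enzyme.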 The class given is functional.
T3 sequence (P49327 whole entry): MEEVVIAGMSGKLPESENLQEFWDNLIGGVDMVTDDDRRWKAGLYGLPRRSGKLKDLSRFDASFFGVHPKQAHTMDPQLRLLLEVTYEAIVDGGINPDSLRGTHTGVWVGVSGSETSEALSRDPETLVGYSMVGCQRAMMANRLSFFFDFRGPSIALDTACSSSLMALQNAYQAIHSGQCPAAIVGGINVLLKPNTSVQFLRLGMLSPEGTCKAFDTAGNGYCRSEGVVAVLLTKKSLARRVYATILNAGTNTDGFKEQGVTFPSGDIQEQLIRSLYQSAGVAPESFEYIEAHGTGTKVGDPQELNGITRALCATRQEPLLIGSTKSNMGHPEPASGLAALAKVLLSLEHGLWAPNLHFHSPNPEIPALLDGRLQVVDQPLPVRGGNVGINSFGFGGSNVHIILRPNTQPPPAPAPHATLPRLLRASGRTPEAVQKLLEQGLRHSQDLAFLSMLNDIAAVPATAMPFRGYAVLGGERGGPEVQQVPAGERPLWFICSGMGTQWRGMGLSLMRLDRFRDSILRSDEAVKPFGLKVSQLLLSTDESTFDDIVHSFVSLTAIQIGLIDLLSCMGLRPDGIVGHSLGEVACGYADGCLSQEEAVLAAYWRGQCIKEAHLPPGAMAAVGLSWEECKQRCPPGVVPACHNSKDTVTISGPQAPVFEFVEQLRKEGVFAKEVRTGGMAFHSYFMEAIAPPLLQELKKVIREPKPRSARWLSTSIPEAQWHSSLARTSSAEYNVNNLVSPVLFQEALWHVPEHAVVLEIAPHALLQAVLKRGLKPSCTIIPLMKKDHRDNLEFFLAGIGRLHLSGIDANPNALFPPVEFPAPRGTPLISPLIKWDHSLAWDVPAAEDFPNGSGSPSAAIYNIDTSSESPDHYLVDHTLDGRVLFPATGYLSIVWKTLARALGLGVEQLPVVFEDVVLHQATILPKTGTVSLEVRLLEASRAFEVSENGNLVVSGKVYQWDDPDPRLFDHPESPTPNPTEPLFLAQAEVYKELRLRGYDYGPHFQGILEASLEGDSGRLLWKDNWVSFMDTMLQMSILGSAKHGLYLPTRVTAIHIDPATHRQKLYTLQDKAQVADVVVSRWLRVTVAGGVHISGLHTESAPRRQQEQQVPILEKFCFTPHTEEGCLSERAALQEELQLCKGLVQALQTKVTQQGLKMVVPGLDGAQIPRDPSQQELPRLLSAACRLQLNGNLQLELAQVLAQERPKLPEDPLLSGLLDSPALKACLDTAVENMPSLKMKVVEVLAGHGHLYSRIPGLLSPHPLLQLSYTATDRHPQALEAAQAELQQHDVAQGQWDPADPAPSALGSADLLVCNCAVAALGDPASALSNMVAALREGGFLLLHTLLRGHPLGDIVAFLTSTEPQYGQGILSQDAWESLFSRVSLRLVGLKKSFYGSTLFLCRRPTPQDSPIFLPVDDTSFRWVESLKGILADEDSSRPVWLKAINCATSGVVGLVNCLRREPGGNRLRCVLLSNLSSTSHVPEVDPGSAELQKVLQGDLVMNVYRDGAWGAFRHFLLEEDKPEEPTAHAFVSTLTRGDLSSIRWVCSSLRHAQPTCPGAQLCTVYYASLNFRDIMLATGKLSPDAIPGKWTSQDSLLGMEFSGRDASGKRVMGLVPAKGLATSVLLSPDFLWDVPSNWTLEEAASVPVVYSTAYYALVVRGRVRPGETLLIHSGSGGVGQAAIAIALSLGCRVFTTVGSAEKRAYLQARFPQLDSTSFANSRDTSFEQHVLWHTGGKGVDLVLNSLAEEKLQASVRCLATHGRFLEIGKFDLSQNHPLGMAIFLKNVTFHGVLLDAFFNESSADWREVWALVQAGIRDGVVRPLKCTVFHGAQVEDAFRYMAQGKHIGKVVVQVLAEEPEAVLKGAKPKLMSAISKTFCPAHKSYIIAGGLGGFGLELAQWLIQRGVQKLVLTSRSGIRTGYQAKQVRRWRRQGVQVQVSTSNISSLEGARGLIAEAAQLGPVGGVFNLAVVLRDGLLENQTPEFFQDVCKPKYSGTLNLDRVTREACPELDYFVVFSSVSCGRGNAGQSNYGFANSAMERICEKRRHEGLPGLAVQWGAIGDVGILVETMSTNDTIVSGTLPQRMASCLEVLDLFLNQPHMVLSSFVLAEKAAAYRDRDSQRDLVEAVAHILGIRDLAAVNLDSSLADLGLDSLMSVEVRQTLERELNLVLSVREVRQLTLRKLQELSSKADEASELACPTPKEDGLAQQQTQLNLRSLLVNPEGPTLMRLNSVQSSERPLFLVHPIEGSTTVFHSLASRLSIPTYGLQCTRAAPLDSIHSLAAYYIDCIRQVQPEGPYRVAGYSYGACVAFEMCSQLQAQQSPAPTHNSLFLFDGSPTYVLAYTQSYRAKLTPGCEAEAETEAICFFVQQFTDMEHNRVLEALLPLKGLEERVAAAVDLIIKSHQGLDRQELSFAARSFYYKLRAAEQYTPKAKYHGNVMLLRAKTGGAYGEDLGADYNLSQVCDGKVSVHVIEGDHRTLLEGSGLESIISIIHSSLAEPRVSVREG
Assay [7] deals with T2, Small ubiquitin-related modifier 1. Put plainly: SUMO1 protein-protein binding blockers, potency – biochemical, FRET, dose response (AID 624383). The class given is functional. The settings on record: read-out: IC50_Mean.
Assay [8] addresses T4, Sentrin-specific protease 8 (Homo sapiens, UniProt Q96LD8).
T4 sequence (Q96LD8 whole entry): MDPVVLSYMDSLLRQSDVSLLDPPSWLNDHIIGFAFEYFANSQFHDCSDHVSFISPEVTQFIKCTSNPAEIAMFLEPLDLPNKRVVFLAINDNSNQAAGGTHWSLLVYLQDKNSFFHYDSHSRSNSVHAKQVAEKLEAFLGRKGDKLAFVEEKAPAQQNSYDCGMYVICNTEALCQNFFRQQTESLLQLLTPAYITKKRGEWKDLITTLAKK
The class given is functional.

Assay [9] has as its target T4, Sentrin-specific protease 8. The class given is functional. This is another data set of the same source.
Assay [10] has as its target T5, Rac GTPase-activating protein 1 (Homo sapiens, UniProt Q9H0H5).
T5 sequence (Q9H0H5 whole entry): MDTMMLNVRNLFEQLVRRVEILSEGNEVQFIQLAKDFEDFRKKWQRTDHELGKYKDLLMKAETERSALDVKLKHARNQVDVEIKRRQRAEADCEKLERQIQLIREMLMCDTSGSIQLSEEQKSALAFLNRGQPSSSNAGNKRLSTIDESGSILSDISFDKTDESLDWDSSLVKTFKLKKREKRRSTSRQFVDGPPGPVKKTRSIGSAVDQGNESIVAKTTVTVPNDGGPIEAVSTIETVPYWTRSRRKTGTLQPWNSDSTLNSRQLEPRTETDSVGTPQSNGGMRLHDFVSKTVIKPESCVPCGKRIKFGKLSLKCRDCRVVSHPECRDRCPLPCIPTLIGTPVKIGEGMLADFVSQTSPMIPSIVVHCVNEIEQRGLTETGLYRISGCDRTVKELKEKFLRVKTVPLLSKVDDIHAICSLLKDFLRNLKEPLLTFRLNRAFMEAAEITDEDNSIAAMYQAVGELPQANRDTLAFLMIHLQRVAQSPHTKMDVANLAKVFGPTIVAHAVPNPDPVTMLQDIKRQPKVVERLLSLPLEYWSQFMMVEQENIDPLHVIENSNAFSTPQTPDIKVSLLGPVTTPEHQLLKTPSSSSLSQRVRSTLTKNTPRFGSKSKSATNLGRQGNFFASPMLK
Put plainly: blockers of MgcRacGAP-driven Rac1 GTP hydrolysis – biochemical, ADP Hunter fluorescence, primary and confirmatory, confirmation (AID 624330). The class given is functional.

Assay [11] addresses T3, Fatty acid synthase. Put plainly: inhibition of human FAS-TE enzyme activity – biochemical, kinetic fluorescence intensity, dose response (AID 624326).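 Note: rate of fluorescence rise from hydrolysis of a fluorogenic O-methyl fluorescein ester substrate.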 The class given is functional.
For assay [12], the target named is Matrix metalloproteinase-14 (Homo sapiens, UniProt P50281). The experiment in a line: Dose Response confirmation of uHTS hits for a small molecule inhibitors of MT1-MMP activation in a fluorescence assay set 1. The class given is functional.
For assay [13], the target named is T6, Histone-lysine N-methyltransferase NSD2 (Homo sapiens, UniProt O96028).
T6 sequence (O96028 whole entry): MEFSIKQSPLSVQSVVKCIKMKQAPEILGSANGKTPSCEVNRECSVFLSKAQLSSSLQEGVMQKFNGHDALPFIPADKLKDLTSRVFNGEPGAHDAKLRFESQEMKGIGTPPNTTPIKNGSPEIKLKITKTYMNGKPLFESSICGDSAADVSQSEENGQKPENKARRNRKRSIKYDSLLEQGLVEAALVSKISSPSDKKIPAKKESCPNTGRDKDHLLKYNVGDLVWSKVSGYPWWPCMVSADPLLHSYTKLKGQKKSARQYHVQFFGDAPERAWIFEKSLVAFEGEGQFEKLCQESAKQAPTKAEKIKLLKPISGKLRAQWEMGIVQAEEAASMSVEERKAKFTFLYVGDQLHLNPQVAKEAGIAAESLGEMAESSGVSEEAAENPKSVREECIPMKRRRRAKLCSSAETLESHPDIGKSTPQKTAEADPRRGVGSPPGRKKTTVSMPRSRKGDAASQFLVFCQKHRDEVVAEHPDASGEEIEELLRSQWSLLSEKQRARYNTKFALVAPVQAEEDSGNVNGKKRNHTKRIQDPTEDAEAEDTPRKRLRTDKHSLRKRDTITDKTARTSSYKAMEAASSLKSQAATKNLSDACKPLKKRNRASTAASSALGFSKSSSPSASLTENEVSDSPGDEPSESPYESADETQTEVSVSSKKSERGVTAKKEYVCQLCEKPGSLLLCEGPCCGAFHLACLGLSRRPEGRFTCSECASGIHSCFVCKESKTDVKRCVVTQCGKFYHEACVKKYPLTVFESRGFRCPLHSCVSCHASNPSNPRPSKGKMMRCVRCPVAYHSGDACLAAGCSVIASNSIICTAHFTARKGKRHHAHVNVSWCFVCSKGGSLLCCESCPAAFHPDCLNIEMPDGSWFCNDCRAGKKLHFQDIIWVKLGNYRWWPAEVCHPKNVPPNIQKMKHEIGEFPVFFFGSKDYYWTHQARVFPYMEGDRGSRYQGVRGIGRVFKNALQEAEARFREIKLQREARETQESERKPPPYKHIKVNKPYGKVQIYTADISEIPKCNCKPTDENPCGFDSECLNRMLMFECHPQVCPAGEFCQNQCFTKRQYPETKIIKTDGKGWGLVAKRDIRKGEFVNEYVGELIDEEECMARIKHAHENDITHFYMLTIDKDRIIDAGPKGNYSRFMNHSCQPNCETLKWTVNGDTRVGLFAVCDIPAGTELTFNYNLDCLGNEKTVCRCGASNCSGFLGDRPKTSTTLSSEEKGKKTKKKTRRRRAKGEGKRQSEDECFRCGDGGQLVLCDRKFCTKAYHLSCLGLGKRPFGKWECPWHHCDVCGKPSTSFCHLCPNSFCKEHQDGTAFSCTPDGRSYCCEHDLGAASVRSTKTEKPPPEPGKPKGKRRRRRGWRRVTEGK
The format is biochemical.

Assay [14] addresses T7, Polyadenylate-binding protein 1 (Homo sapiens, UniProt P11940). Put plainly: MLLE binding blockers, Cy5 peptide tracer – biochemical, fluorescence polarization, Cy5-PAM2 peptide, secondary, miRNA deadenylation inhibitor project, dose response (AID 602260). The format is functional. The settings on record: read-out: IC50_Mean.
The target of assay [15] is T7, Polyadenylate-binding protein 1. Put plainly: MLLE domain peptide-binding blockers, IC50 – biochemical, fluorescence polarization, FITC-PAM2 peptide, dose response (AID 602259). The class given is functional. The note with it: read-out: IC50_Mean.
Assay [16] is described as follows: HGIII-sPLA2 enzyme inhibition potency – biochemical, QFRET, IC50, dose response (AID 743457).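 Note: green fluorescence rise as the enzyme cleaves BODIPY PC-A2 in liposomes.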
Another assay relates to HeLa. Put plainly: viability loss in HeLa cells – cell-based, ATP luminescence, cherry-pick samples, cytotoxicity control, dose response (AID 687004). The format is functional. The note with it: Homo sapiens.
In a further assay the test system is HEK293. Put plainly: viability loss in HEK293T cells – cell-based, ATP luminescence, cherry-pick samples, cytotoxicity control, dose response (AID 687005).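 Note: cells exposed to compound for 48 hours.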 The format is functional. The note with it: Homo sapiens.
The nature of assay [17]: HEK293 Cytotoxicity Assay Measured in Cell-Based System Using Plate Reader - 7071-01_Inhibitor_Dose_CherryPick_Activity_Set2. The format is functional.
Another assay has as its system A549. Put plainly: viability loss in A549 cells – cell-based, plate reader, cherry-pick samples, cytotoxicity control, dose response (AID 687028). The format is functional. The settings on record: Homo sapiens.
The next assay deals with NS3 (Hepatitis C virus, UniProt A3EZJ3). The experiment in a line: NS3h DNA-binding inhibition IC50 – biochemical, fluorescence polarization, ChemBridge library, dose response (AID 743264).
Assay [18] in a line: T. cruzi growth inhibition in host cells, dose response, cell-based, plate reader, dry powder, set 2 (AID 652275). The class given is functional.
Assay [19] is described as follows: A549 cell cytotoxicity, dose response, cytotoxicity control, plate reader, cherry-pick, antagonist series (AID 743412). The format is functional, cell-based.
Assay [20] can be described thus: inhibition of bursicon-driven LGR2 cAMP signaling – cell-based, HEK293, CRE-luciferase reporter, cherry pick, dose response (AID 743342). The format is functional. (In general: A reporter such as luciferase makes a cellular process visible.)

T7 sequence (P11940 whole entry, the tested form may be a part): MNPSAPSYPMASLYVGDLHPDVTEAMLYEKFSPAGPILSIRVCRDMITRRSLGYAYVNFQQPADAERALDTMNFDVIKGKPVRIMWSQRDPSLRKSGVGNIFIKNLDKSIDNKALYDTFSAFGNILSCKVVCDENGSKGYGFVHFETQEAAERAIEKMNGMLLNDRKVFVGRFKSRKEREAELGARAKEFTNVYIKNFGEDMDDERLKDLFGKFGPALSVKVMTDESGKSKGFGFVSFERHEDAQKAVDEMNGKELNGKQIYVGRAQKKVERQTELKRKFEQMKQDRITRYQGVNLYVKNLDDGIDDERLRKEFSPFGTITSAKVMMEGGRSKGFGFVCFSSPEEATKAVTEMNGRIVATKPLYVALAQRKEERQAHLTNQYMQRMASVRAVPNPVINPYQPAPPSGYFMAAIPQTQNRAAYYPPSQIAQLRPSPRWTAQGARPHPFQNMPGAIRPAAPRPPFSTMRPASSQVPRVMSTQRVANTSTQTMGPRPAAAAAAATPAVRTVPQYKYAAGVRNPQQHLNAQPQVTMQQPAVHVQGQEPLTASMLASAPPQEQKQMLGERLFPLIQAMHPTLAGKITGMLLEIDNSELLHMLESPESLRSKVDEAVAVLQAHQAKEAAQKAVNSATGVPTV
T2 sequence (P63165 whole entry): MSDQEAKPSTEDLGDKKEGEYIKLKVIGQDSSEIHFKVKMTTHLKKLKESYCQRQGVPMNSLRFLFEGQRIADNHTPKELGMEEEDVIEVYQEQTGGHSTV
Chain of Disintegrin and metalloproteinase domain-containing protein 17 (P78536 whole entry, the tested form may be a part): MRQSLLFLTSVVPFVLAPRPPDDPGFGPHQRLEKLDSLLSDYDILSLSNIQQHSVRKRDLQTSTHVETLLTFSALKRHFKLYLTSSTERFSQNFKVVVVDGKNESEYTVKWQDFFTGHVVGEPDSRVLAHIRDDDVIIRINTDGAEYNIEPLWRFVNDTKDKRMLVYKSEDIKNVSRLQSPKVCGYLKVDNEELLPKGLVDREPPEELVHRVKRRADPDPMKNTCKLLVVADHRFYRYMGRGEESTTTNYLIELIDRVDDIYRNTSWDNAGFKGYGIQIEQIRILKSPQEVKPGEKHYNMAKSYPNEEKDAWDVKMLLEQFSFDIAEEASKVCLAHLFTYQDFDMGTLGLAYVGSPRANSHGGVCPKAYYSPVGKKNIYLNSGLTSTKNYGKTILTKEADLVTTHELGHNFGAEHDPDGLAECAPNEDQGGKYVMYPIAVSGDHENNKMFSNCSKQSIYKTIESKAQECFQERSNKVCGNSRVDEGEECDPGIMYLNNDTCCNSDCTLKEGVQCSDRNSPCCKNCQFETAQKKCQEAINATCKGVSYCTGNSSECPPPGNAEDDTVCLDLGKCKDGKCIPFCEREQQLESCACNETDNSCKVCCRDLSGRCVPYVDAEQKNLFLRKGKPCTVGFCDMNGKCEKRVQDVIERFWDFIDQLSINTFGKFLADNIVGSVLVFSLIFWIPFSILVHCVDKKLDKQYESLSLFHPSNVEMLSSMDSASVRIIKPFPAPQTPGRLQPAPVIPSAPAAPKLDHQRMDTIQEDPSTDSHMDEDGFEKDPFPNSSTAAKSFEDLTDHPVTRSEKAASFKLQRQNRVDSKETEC

For `CCOc1ccc(S(=O)(=O)Nc2ccc(F)cc2)c(C)c1C`, the IC50 in assay [1] was > 69.5 µM (inactive); in assay [2], > 7.72 µM (active).

Take `Cc1ccccc1C1=C/C(=C(\SS/C(C(=O)c2ccc(OCC(=O)O)c(Cl)c2Cl)=C2\C=C(c3ccccc3C)SS2)C(=O)c2ccc(OCC(=O)O)c(Cl)c2Cl)SS1`: the AC50 is 63.2 µM (active) on ORF 73 and 6.35 µM (active) in assay [13]. For the same compound, the IC50 is 16.1 µM (active) on Nonstructural protein 1; 9.25 µM (active) at Genome polyprotein; 1.51 µM (active) in assay [3]; 2.48 µM (active) in [4]; 2.65 µM (active) in assay [5]; 8.12 µM (active) on Fatty acid synthase [6]. Moreover, the IC50 was 50.2 µM (inactive) in [7]; 9.29 µM (active) in [8]; 56.9 µM (active) in [9]; 61.1 µM (active) in [10]; 6.62 µM (active) on Fatty acid synthase [11]; 22.7 µM (inactive) in [12].

Take `Cc1ccc(NC(=S)N/N=C2/CCCCc3ccccc32)cc1`: the IC50 in [14] is > 66 µM (inactive); in [15], > 66 µM (inactive); in [16], > 122 µM (inactive).

As to `O=C(C[C@@H]1CC[C@H]2[C@@H](COC[C@H](O)CN2Cc2ccc(Oc3ccccc3)cc2)O1)Nc1nccs1`, the AC50 was 43.9 µM (active) with HeLa, 7.07 µM (active) in the assay with HEK293 and 7.07 µM (active) in assay [17].

With `C[C@H]1CCCCO[C@H](CN(C)C(=O)Nc2ccc(C(F)(F)F)cc2)[C@@H](C)CN([C@@H](C)CO)C(=O)c2cc(NC(=O)C3CCCCC3)ccc2O1`, the AC50 in the assay with A549 was 20.8 µM (active).

With `Cc1ccc(N2C(=O)NC(=O)/C(=C/c3ccc(-c4cccc(C(=O)O)c4)o3)C2=O)cc1`, the IC50 at NS3 is 14.8 µM (inactive).

Take `CN(C)CC#Cc1cccc(-c2nc(C(=O)N[C@@H]3CCN(Cc4ccccc4)C3)cc3c2[C@@H](CCO)N([S+]([O-])C(C)(C)C)C3)c1` (some centres not stated): the half-maximal activity concentration (AC50) in [18] was 0.0256 µM (active).

Regarding `C[C@H]1CCCCO[C@@H](CN(C)C(=O)Nc2ccc3c(c2)OCO3)[C@@H](C)CN([C@@H](C)CO)C(=O)c2cc(NC(=O)NC3CCCCC3)ccc2O1`, the AC50 in assay [19] is 35.3 µM (active); in assay [20] it was 16.9 µM (active).

The values are drawn from ChEMBL document CHEMBL1201862, “PubChem BioAssay data set” (2004).
